In patent US11180461B2, “Triazoles as Kv3 inhibitors” (AUTIFONY THERAPEUTICS LIMITED, priority 2012, dated 2021):

Legend:
[1] = Determination of in vivo pharmacokinetic parameters (blood and brain) in rats, with and without Elacridar; conditions: rat, oral 1 mg/kg
Procedure: Adult male rats (Charles River, Italy) were dosed with test compound orally at 1 mg/kg (5 ml/kg, in 5% v/v DMSO, 0.5% w/v HPMC in water) and intravenously at 0.5 mg/kg (2 ml/kg, in 5% v/v DMSO 40% w/v PEG400 in saline). After oral administration, blood samples were collected under deep Isofluorane anesthesia from the portal vein and heart of each rat (1 rat per time point). After intravenous administration, serial blood samples were collected from the lateral tail vein of each rat. A further group of rats (n=1 per test compound) received a single intravenous administration of the PgP transport inhibitor, Elacridar (3 mg/kg) shortly before the oral administration of the test compound at 1 mg/kg, as above. Blood and brain samples were collected at a single timepoint of 0.5 h after dose administration for these animals. In all cases, blood samples were collected into potassium EDTA tubes.
Blood and brain samples were assayed for test compound concentration using a method based on protein precipitation with acetonitrile followed by HPLC/MS-MS analysis with an optimized analytical method.
The concentrations of test compound in blood (expressed as ng/ml) and brain (expressed as ng/g) at the different time points following either oral or intravenous dosing were analysed using a non-compartmental pharmacokinetic model using WinNonLin Professional version 4.1. The following parameters were drived:
Intravenous dosing: Maximum concentration over time (Cmax), integrated concentration over time (AUC), clearance (Clb), volume of distribution (Vss) and half-life (t1/2).
Oral dosing: Cmax, time of maximum concentration (Tmax), AUC, bioavailability (F %), fraction absorbed (Fa %), blood to brain ratio (AUC BB), and Fold-change in AUC BB in the presence of Elacridar.

[2] = biological target: T1, human Kv3.1 channels (hKv3.1) (Homo sapiens, UniProt P48547); assay: hKv3.1 recombinant cell assay, IonWorks Quattro planar array electrophysiology; assay type: cell-based; conditions: comparable = activity for one channel less than 2 fold that for the other
T1 construct: expressed in transfected cells; host or cells: CHO/Gam/E1A-clone22 (CGE22) cells, transduced with BacMam pFBM/human Kv3.1
T1 sequence (P48547 1-511): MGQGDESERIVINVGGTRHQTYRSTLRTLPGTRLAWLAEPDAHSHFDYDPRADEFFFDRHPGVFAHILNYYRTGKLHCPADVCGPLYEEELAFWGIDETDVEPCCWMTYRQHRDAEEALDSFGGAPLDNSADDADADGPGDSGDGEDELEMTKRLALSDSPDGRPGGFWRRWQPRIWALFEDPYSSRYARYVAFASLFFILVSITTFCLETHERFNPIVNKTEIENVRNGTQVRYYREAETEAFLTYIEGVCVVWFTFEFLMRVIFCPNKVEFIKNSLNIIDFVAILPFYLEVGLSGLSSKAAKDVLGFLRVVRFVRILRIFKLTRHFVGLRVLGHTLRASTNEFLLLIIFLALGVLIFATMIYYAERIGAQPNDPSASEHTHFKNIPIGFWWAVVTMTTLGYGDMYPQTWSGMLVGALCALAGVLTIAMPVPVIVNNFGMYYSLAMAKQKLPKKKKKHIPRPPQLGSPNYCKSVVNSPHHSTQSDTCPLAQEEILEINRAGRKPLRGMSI
From the text: The ability of the compounds of the invention to modulate the voltage-gated potassium channel subtypes Kv3.2/3.1 may be determined using the following assay. The assay may also be used to determine the ability of compounds of the invention to modulate the voltage-gated potassium channel Kv3.3. Analogous methods may be used to investigate the ability of the compounds of the invention to modulate other channel subtypes.
To assess compound effects on human Kv3.1 channels (hKv3.1), CHO/Gam/E1A-clone22 alias CGE22 cells were transduced using a hKv3.1 BacMam reagent. This cell line was designed to be an improved CHO-K1-based host for enhanced recombinant protein expression as compared to wild type CHO-K1. The cell line was generated following the transduction of CHO-K1 cells with a BacMam virus expressing the Adenovirus-Gam1 protein and selection with Geneticin-G418, to generate a stable cell line, CHO/Gam-A3. CHO/Gam-A3 cells were transfected with pCDNA3-E1A-Hygro, followed by hygromycin-B selection and FACS sorting to obtain single-cell clones. […]
Experiments were conducted at room temperature using IonWorks Quattro™ planar array electrophysiology technology (Molecular Devices Corp.) with PatchPlate™ PPC. […] Planar electrode hole resistances (Rp) were determined by applying a 10 mV voltage step across each well. […]

## Cc1ccc(Oc2ccc(-n3c(C)n[nH]c3=O)cn2)c2c1OCC21CC1 [Example 14, 5-methyl-4-{6-[(7-methylspiro[1-benzofuran-3,1′-cyclopropan]-4-yl)oxy]pyridin-3-yl}-2,4-dihydro-3H-1,2,4-triazol-3-one]
[1]; AUC BB from blood and brain
  AUC BB relative to Reference Example 87 and Reference Example 88 of WO2011069951A1: at least two fold
[1]; Elacridar 3 mg/kg i.v., blood and brain at 0.5 h, p-glycoprotein interaction
  change in AUC BB in the presence of Elacridar: limited change
[2]
  activity between modulation of Kv3.1 and Kv3.2 channels: comparable activity between modulation of Kv3.1 and Kv3.2 channels
